According to patent US20220127247A1, “N-(PYRIDIN-2-YL)PYRIDINE-SULFONAMIDE DERIVATIVES AND THEIR USE IN THE TREATMENT OF DISEASE” (NOVARTIS AG, priority 2019, published 2022):

Target: T1, delF508-CFTR (Homo sapiens, UniProt P13569, DEL508-508)
T1 construct: expressed in transfected cells
Assay: Measurement of delF508-CFTR-HRP surface expression in CFBE41o- cells
Type: cell-based
Settings: for EC50: HRP-tagged delF508-CFTR in CFBE41o- cells, 24 h with compound, luminescence, 10-point curve, top 10 μM; for Emax: efficacy relative to reference compound 3-(6-(1-(2,2-difluorobenzo[d][1,3]dioxol-5-yl)cyclopropane-1-carboxamido)-3-methylpyridin-2-yl)benzoic acid, CFBE41o- cells, 24 h, read-out: DelF508-CFTR-HRP Amax %
Text: Measurement of delF508-CFTR-HRP Surface Expression in CFBE41o-Cells
This assay quantifies the cell surface expressions of the mutant CFTR channel using an extracellular HRP tag.
A cellular assay was developed to measure surface expression of horseradish peroxidase (HRP) tagged delF508-CFTR in the human bronchial epithelial immortalized CFBE41o-cell line (Phuan, P. W., et al, (2014) Molecular Pharmacology 86:42-51). Specifically, the HRP sequence was inserted into the fourth extracellular loop of delF508-CFTR and stably expressed in CFBE41o-cells. Cells were seeded in 384 well plate at a density of 5000 cells/well and incubated at 37° C. for 12 to 24 hours in medium (Gibco MEM #11095, 10% FBS, 10 mM HEPES, […], 200 μg/mL G418, 3 μg/mL Puromycin). The delF508-CFTR-HRP expression was induced with 500 ng/mL doxycycline (Sigma D-9891, dissolved in H2O and sterile filtered) in medium and the cells were incubated at 37° C. for 48 h. Old medium was removed and fresh medium was added containing 500 ng/mL doxycycline and unknown test compound at required test concentration in DMSO, not exceeding 0.5% final DMSO concentration. The highest concentration tested was 10 μM with a 10-point concentration response curve using a 3-fold dilution. After addition of compounds, the cells were incubated for 24 h at 37° C. On the final day, cells were washed four times in PBS containing 1 mM MgCl2 and 0.1 mM CaCl2. HRP-Substrate (SuperSignal ELISA Pico, Fisher #37069) 20 μl/well was added and the luminescence signal was determined (Viewlux, Perkin Elmer). Light was emitted upon addition of exogenous HRP-Substrate only when delF508-CFTR-HRP reached the cell surface and the HRP tag was accessible to the HRP-Substrate (note: HRP-Substrate cannot cross the lipid bilayer to reach delF508-CFTR-HRP misfolded within the cell).
The median activity for the lowest concentration of the compounds on each assay plate was calculated and this value was used to normalize the signal for each well on the respective plate. Three replicates at each concentrations for every compound were run to determine one EC50. The median value was determined and used to calculate compound activities as described below. Effective half maximal values (EC50) were calculated for each compound by performing logistic regression on measured dose-response data points using the equation: […]
where “Y” is the observed activity, “Bottom” is the lowest observed value, “Top” is the highest observed value, and the “Hill coefficient” gives the largest absolute value of the slope. The curve fitting is carried out by a curve fitting program implemented at GNF using Matlab (Mathworks).
The dose response curves also were used to calculate Fold Change (FC) using the equation: […]
Compound efficacy relative to the reference compound 3-(6-(1-(2,2-difluorobenzo[d][1,3]dioxol-5-yl)cyclopropane-1-carboxamido)-3-methylpyridin-2-yl)benzoic acid was determined using the following formula: […]

T1 sequence (P13569 with tags, fused parts or gaps DEL508-508): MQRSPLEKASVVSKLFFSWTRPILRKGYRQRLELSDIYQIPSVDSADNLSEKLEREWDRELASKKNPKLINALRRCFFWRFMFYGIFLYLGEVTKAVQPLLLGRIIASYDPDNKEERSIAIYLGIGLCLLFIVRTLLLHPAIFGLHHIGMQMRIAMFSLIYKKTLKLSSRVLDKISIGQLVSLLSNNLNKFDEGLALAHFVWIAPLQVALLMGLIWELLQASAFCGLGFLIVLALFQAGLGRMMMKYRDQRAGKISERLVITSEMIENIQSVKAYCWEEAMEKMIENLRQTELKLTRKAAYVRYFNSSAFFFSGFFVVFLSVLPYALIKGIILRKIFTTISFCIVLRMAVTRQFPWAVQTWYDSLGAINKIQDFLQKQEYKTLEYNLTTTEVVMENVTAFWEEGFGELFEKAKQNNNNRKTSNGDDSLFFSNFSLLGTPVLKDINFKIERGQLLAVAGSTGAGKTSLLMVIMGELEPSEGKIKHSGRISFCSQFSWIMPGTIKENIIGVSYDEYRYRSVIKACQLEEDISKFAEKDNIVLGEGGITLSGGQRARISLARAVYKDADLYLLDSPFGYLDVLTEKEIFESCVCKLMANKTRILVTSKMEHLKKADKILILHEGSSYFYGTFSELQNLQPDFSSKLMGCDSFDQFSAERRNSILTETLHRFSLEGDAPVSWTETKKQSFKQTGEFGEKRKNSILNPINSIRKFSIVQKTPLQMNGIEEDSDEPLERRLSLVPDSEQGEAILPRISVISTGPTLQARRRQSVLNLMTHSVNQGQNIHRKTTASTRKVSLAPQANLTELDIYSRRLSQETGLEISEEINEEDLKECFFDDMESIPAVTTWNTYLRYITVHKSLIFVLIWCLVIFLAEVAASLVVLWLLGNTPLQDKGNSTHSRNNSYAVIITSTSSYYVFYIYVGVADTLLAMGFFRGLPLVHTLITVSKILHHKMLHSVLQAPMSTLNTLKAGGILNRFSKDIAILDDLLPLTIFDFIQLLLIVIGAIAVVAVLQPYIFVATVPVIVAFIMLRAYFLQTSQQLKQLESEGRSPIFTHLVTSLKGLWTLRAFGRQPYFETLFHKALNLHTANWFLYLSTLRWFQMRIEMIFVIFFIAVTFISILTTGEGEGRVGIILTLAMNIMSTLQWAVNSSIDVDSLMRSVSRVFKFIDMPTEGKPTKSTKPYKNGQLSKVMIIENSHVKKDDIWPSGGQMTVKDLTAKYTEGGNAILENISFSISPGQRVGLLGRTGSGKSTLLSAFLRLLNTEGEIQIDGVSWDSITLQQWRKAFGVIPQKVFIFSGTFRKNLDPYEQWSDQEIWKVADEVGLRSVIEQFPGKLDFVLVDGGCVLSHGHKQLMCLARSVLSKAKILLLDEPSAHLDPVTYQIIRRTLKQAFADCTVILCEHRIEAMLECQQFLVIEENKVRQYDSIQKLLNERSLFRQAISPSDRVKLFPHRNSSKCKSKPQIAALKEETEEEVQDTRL

Compound	EC50 [nM]	Emax [%]
Cc1ccccc1-c1nc(NS(=O)(=O)c2cccc(NC3CCCC(C(=O)O)C3)n2)ccc1C(F)(F)F (mixture of isomers) [Compound 105, 3-((6-(N-(6-(o-tolyl)-5-(trifluoromethyl)pyridin-2-yl)sulfamoyl)pyridin-2-yl)amino)cyclohexane-1-carboxylic Acid]	1810	361
Cc1ccccc1-c1nc(NS(=O)(=O)c2cccc(N[C@@H]3CCC[C@H](C(=O)O)C3)n2)ccc1C(F)(F)F (racemic) [106a 106b (racemic mixture)]	1950	392
Cc1ccccc1-c1nc(NS(=O)(=O)c2cccc(N[C@H]3[C@@H](C(=O)O)[C@H]4C=C[C@@H]3C4)n2)ccc1C(F)(F)F (racemic) [107a 107b (racemic mixture)]	2070	763
Cc1ccccc1-c1nc(NS(=O)(=O)c2cccc(N[C@@H]3[C@H]4CC[C@H](C4)[C@@H]3C(=O)O)n2)ccc1C(F)(F)F (racemic) [108a 108b (racemic mixture)]	2070	569
Cc1ccccc1-c1nc(NS(=O)(=O)c2cccc(N[C@@H]3[C@@H]4CC[C@@H](C4)[C@@H]3C(=O)O)n2)ccc1C(F)(F)F (racemic) [109a 109b (racemic mixture)]	2320	700
Cc1ccccc1-c1nc(NS(=O)(=O)c2cccc(N3CCC[C@@](C)(CC(=O)O)C3)n2)ccc1C(F)(F)F (single isomer, unassigned) [Compound 122]	1620	785
Cc1ccccc1-c1nc(NS(=O)(=O)c2cccc(N3CCC[C@](C)(CC(=O)O)C3)n2)ccc1C(F)(F)F (single isomer, unassigned) [Compound 123]	1610	–
Cc1cccc(C)c1-c1nc(NS(=O)(=O)c2cccc(NCCC(=O)O)n2)ccc1Cl [Compound 1, 3-((6-(N-(5-chloro-6-(2,6-dimethylphenyl)pyridin-2-yl)sulfamoyl)pyridin-2-yl)amino)propanoic Acid]	2150	291
Cc1cccc(C)c1-c1nc(NS(=O)(=O)c2ccnc(NCCC(=O)O)c2)ccc1Cl [Compound 2, 3-((4-(N-(5-chloro-6-(2,6-dimethylphenyl)pyridin-2-yl)sulfamoyl)pyridin-2-yl)amino)propanoic Acid]	2720	124
Cc1cccc(C)c1-c1nc(NS(=O)(=O)c2cccc(NCCCC(=O)O)n2)ccc1Cl [Compound 3, 4-((6-(N-(5-chloro-6-(2,6-dimethylphenyl)pyridin-2-yl)sulfamoyl)pyridin-2-yl)amino)butanoic Acid]	2580	722
Cc1cccc(C)c1-c1nc(NS(=O)(=O)c2cccc(NCCCCC(=O)O)n2)ccc1Cl [Compound 4, 5-((6-(N-(5-chloro-6-(2,6-dimethylphenyl)pyridin-2-yl)sulfamoyl)pyridin-2-yl)amino)pentanoic Acid]	2190	–
Cc1cccc(C)c1-c1nc(NS(=O)(=O)c2cccc(N3CCC(CC(=O)O)CC3)n2)ccc1Cl [Compound 5, 2-(1-(6-(N-(5-chloro-6-(2,6-dimethylphenyl)pyridin-2-yl)sulfamoyl)pyridin-2-yl)piperidin-4-yl)acetic Acid]	2580	596
Cc1ccc(F)cc1-c1nc(NS(=O)(=O)c2cccc(N3CCC(C)(CC(=O)O)CC3)n2)ccc1C(F)(F)F [Compound 6, 2-(1-(6-(N-(6-(5-fluoro-2-methylphenyl)-5-(trifluoromethyl)pyridin-2-yl)sulfamoyl)pyridin-2-yl)-4-methylpiperidin-4-yl)acetic Acid]	1520	529
Cc1ccccc1-c1nc(NS(=O)(=O)c2cccc(N3CCC(C)(CC(=O)O)CC3)n2)ccc1C(F)(F)F [Compound 7, 2-(4-methyl-1-(6-(N-(6-(o-tolyl)-5-(trifluoromethyl)pyridin-2-yl)sulfamoyl)pyridin-2-yl)piperidin-4-yl)acetic Acid]	1880	363
Cc1ccccc1-c1nc(NS(=O)(=O)c2cccc(NCC(C)(C)C(=O)O)n2)ccc1C(F)(F)F [Compound 8, 2,2-dimethyl-3-((6-(N-(6-(o-tolyl)-5-(trifluoromethyl)pyridin-2-yl)sulfamoyl)pyridin-2-yl)amino)propanoic Acid]	1850	271
Cc1ccccc1-c1nc(NS(=O)(=O)c2cccc(N3CCC(O)(C(C)(C)C(=O)O)CC3)n2)ccc1C(F)(F)F [Compound 9, 2-(4-hydroxy-1-(6-(N-(6-(o-tolyl)-5-(trifluoromethyl)pyridin-2-yl)sulfamoyl)pyridin-2-yl)piperidin-4-yl)-2-methylpropanoic Acid]	2020	102
Cc1ccccc1-c1nc(NS(=O)(=O)c2cccc(N3CCC(C(C)(C)C(=O)O)CC3)n2)ccc1C(F)(F)F [Compound 10, 2-methyl-2-(1-(6-(N-(6-(o-tolyl)-5-(trifluoromethyl)pyridin-2-yl)sulfamoyl)pyridin-2-yl)piperidin-4-yl)propanoic Acid]	910	266
Cc1ccccc1-c1nc(NS(=O)(=O)c2cccc(NCC3(C(=O)O)CC3)n2)ccc1C(F)(F)F [Compound 11, 1-(((6-(N-(6-(o-tolyl)-5-(trifluoromethyl)pyridin-2-yl)sulfamoyl)pyridin-2-yl)amino)methyl)cyclopropane-1-carboxylic Acid]	2250	415
Cc1ccccc1-c1nc(NS(=O)(=O)c2cccc(NCC3(C(=O)O)CCC3)n2)ccc1C(F)(F)F [Compound 12, 1-(((6-(N-(6-(o-tolyl)-5-(trifluoromethyl)pyridin-2-yl)sulfamoyl)pyridin-2-yl)amino)methyl)cyclobutane-1-carboxylic Acid]	2300	608
Cc1c(F)cccc1-c1nc(NS(=O)(=O)c2cccc(N3CCC(C)(CC(=O)O)CC3)n2)ccc1C(F)(F)F [Compound 13, 2-(1-(6-(N-(6-(3-fluoro-2-methylphenyl)-5-(trifluoromethyl)pyridin-2-yl)sulfamoyl)pyridin-2-yl)-4-methylpiperidin-4-yl)acetic Acid]	2400	370
Cc1ccccc1-c1nc(NS(=O)(=O)c2cccc(N3CCC(CC(=O)O)CC3)n2)ccc1C(F)(F)F [Compound 14, 2-(1-(6-(N-(6-(o-tolyl)-5-(trifluoromethyl)pyridin-2-yl)sulfamoyl)pyridin-2-yl)piperidin-4-yl)acetic Acid]	2550	283
CCc1ccccc1-c1nc(NS(=O)(=O)c2cccc(N3CCC(CC(=O)O)CC3)n2)ccc1C(F)(F)F [Compound 15, 2-(1-(6-(N-(6-(2-ethylphenyl)-5-(trifluoromethyl)pyridin-2-yl)sulfamoyl)pyridin-2-yl)piperidin-4-yl)acetic Acid]	2140	397
O=C(O)CC1CCN(c2cccc(S(=O)(=O)Nc3ccc(C(F)(F)F)c(-c4ccccc4-c4ccccc4)n3)n2)CC1 [Compound 16, 2-(1-(6-(N-(6-([1,1′-biphenyl]-2-yl)-5-(trifluoromethyl)pyridin-2-yl)sulfamoyl)pyridin-2-yl)piperidin-4-yl)acetic Acid]	2010	495
